Source: US20220409614A1, “TREATING BEHAVIORAL AND PSYCHOLOGICAL SYMPTOMS IN DEMENTIA PATIENTS” (SUVEN LIFE SCIENCES LIMITED, priority 2019, published 2022)
Like-named read-outs stand apart in the source and are kept apart here.

What was measured:
patients with AD = conditions: citalopram treatment group; cited from earlier work
[1] = cited from earlier work
[2] = short-term treatment; cited from earlier work
[3] = system: subjects with moderate AD; test: Phase 2 study in moderate AD, NPI-12 (Neuropsychiatric Inventory) assessment; assay type: in vivo, humans; conditions: for effect on NPI domains as measured by the NPI-12 scale: overall statement
Source text: The study consisted of a 2 to 4-week screening period, followed by a 26-week double-blind treatment period and a 4-week single-blind placebo washout period. […] Population: The study population included male or female subjects, 50 to 85 years of age, with moderate dementia due to probable AD (MMSE 12-20, both inclusive) based on the National Institute of Neurological and Communicative Diseases and Stroke/Alzheimer's Disease and Related Disorders Association ([…]) criteria, diagnosed at least 1 year prior to the study and receiving stable doses for at least 3 months of donepezil HCl (10 mg qd) and either memantine HCl (10 mg bid) or […]® (28 mg memantine HCl extended-release qd) or the combination therapy, NamzaricTM (28 mg memantine HCl extended-release/10 mg donepezil HCl) qd. […] Throughout the study, all subjects continued to receive donepezil HCl (10 mg qd) and memantine HCl (10 mg bid) or […]® (28 mg memantine HCl extended-release qd) or the combination therapy, NamzaricTM (28 mg memantine HCl extended-release/10 mg donepezil HCl) qd. […] During the washout period, all subjects were received placebo in addition to donepezil HCl and memantine HCl. The NPI is a 12-item structured interview with a caregiver designed to assess behavioral disturbances in patients with dementia. The NPI comprises 10 behavioral (hallucinations, delusions, agitation/aggression, dysphoria/depression, anxiety, irritability, disinhibition, euphoria/elation, apathy and aberrant motor behavior), and neurovegetative items (sleep and night-time behavior change, appetite and eating change). The behavioral domains are assessed in terms of frequency, severity and distress. Each item consists of a screening question and several sub-questions which are rated no (not present) or yes (present). Each item is then rated for frequency (a 4-point scale from 1 [occasionally] to 4 [very frequently]), severity (a 3-point scale from 1 [mild] to 3 [marked]), and caregiver distress (a 6-point scale from 0 [not at all] to 5 [very severely or extremely]). The total score 12 items of the frequency and severity ratings range from 0 to 144 and the total score 12 items of caregiver distress ranges from 0 to 60. The NPI was administered to the subject's caregiver and scored by a qualified, trained rater at baseline and Weeks 4, 13 and 26. Data was analyzed using a mixed effects model for repeated measures (MMRM). The model included fixed categorical factors for treatment, week, treatment-by-week interaction, and APO-E status (carrier-one allele, carrier-two alleles, and non-carrier), as well as a continuous covariate of baseline score, the baseline score-by-week interaction, age, and baseline MMSE score. In subgroup analysis, stratification was based on the baseline symptoms and/or symptom emergence.

[4] = system: subjects with moderate AD; test: Phase 2 study in moderate AD, ADAS-Cog 11 assessment; assay type: in vivo, humans; conditions: for change from baseline in ADAScog-11 scores vs placebo: 50 mg
Source text: The study consisted of a 2 to 4-week screening period, followed by a 26-week double-blind treatment period and a 4-week single-blind placebo washout period. […] Population: The study population included male or female subjects, 50 to 85 years of age, with moderate dementia due to probable AD (MMSE 12-20, both inclusive) based on the National Institute of Neurological and Communicative Diseases and Stroke/Alzheimer's Disease and Related Disorders Association ([…]) criteria, diagnosed at least 1 year prior to the study and receiving stable doses for at least 3 months of donepezil HCl (10 mg qd) and either memantine HCl (10 mg bid) or […]® (28 mg memantine HCl extended-release qd) or the combination therapy, NamzaricTM (28 mg memantine HCl extended-release/10 mg donepezil HCl) qd. […] Throughout the study, all subjects continued to receive donepezil HCl (10 mg qd) and memantine HCl (10 mg bid) or […]® (28 mg memantine HCl extended-release qd) or the combination therapy, NamzaricTM (28 mg memantine HCl extended-release/10 mg donepezil HCl) qd. […] During the washout period, all subjects were received placebo in addition to donepezil HCl and memantine HCl. The Alzheimer's Disease Assessment Scale-Cognitive Subscale (ADAS-Cog) was developed to assess the level of cognitive dysfunction in AD. It is also used for assessing the efficacy of anti-dementia treatments. The ADAScog-11 is a brief measure of cognition, including word recall, commands, constructional praxis, naming objects and fingers, ideational praxis, orientation, word recognition task, remembering test instructions, spoken language ability, word-finding difficulty, and comprehension of spoken language. The test is scored by an administrator who adds up points for the errors in each task for a total score ranging from 0 to 70. The greater the dysfunction, the greater the score. A score of 70 represents the most severe impairment. Data was analyzed using a mixed effects model for repeated measures (MMRM). The model included fixed categorical factors for treatment, week, treatment-by-week interaction, and APO-E status (carrier-one allele, carrier-two alleles, and non-carrier), as well as a continuous covariate of baseline score, the baseline score-by-week interaction, age, and baseline MMSE score. In subgroup analysis, stratification was based on the baseline symptoms and/or symptom emergence.

[5] = system: subjects with moderate AD; test: Phase 2 study in moderate AD, safety and tolerability assessment; set-up: species or system humans; conditions: in vivo
Method: The study consisted of a 2 to 4-week screening period, followed by a 26-week double-blind treatment period and a 4-week single-blind placebo washout period.
Throughout the study, all subjects continued to receive donepezil HCl (10 mg qd) and memantine HCl (10 mg bid) or Namenda XR® (28 mg memantine HCl extended-release qd) or the combination therapy, Namzaric™ (28 mg memantine HCl extended-release/10 mg donepezil HCl) qd.
The safety assessed by monitoring adverse events, physical examinations, vital signs, clinical laboratory tests and electrocardiograms.

[6] = baseline domain score ≥1, mITT, 50 mg, Week 4
[7] = baseline domain score ≥1, mITT, 50 mg, Week 13
[8] = baseline domain score ≥1, mITT, 50 mg, Week 26
[9] = baseline domain score ≥1, mITT, 100 mg, Week 4
[10] = baseline domain score ≥1, mITT, 100 mg, Week 13
[11] = baseline domain score ≥1, mITT, 100 mg, Week 26

CN(C)CCCC1(c2ccc(F)cc2)OCc2cc(C#N)ccc21 (stereo not drawn) [Citalopram]
QT interval (patients with AD): QT interval prolongation
cognition (patients with AD): Worsening of cognition

CC(C)COc1ccc(CNC(=O)N(Cc2ccc(F)cc2)C2CCN(C)CC2)cc1 [Pimavanserin]
effect on NPI-NH psychosis scale ([1]; week 6): statistically significant effect
effect on NPI-NH psychosis scale ([1]; week 12): no effect was evident

O=C1CCc2ccc(OCCCCN3CCN(c4cccc(Cl)c4Cl)CC3)cc2N1 [aripiprazole]
symptomatic benefit in BPSD [2]: modest symptomatic benefit

COc1ccc2c(c1)c(CN1CCN(C)CC1)cn2S(=O)(=O)c1ccccc1Br [masupirdine, 1-[(2-bromophenyl)sulfonyl]-5-methoxy-3-[(4-methyl-1-piperazinyl)methyl]-1H-indole]
change from baseline in mean NPI-12 scores vs placebo ([3]; 50 mg, Week 4): statistically significant treatment differences
change from baseline in mean agitation/aggression domain scores of NPI-12 vs placebo ([3]; 50 mg, Week 26, no subgroup): statistically significant treatment difference
mean NPI-12 scores ([3]; Week 13, all 3 treatment arms): remained similar to baseline
mean NPI-12 scores ([3]; Week 26, masupirdine dose groups): remained similar to baseline
change from baseline in NPI-12 domain sleep and nighttime behavior vs placebo ([3]; baseline domain score ≥1, 50 mg, Week 26): statistically significant treatment differences
change from baseline in NPI-12 domain sleep and nighttime behavior vs placebo ([3]; baseline domain score ≥1, 100 mg, Week 13): statistically significant treatment difference
change from baseline in NPI-12 domain sleep and nighttime behavior vs placebo ([3]; baseline domain score ≥1, 100 mg, Week 26): statistically significant treatment differences
change from baseline in NPI-12 domain aberrant motor behavior vs placebo [3, 6]: statistically significant treatment differences
change from baseline in NPI-12 domain delusions and/or hallucinations vs placebo [3, 6]: statistically significant treatment difference
change from baseline in NPI-12 domain sleep and nighttime behavior vs placebo [3, 6]: statistically significant treatment difference
change from baseline in mean euphoria/elation scores vs placebo [3, 6]: statistically significant treatment differences
extended composite NPI-12 score domain (agitation/aggression, aberrant motor behavior and sleep and nighttime behavior disorders) vs placebo [3, 6]: statistically significant treatment differences
change from baseline in NPI-12 domain aberrant motor behavior vs placebo [3, 7]: statistically significant treatment difference
change from baseline in NPI-12 domain delusions and/or hallucinations vs placebo [3, 7]: statistically significant treatment difference
change from baseline in mean agitation/aggression scores vs placebo [3, 7]: statistically significant treatment difference
change from baseline in mean euphoria/elation scores vs placebo [3, 7]: statistically significant treatment differences
change from baseline in mean agitation/aggression scores vs placebo [3, 8]: statistically significant treatment difference
change from baseline in mean euphoria/elation scores vs placebo [3, 8]: statistically significant treatment differences
extended composite NPI-12 score domain (agitation/aggression, aberrant motor behavior and sleep and nighttime behavior disorders) vs placebo [3, 8]: statistically significant treatment differences
change from baseline in NPI-12 domain delusions and/or hallucinations vs placebo [3, 9]: statistically significant treatment difference
change from baseline in NPI-12 domain sleep and nighttime behavior vs placebo [3, 9]: statistically significant treatment difference
change from baseline in mean agitation/aggression scores vs placebo [3, 10]: statistically significant treatment difference
extended composite NPI-12 score domain (agitation/aggression, aberrant motor behavior and sleep and nighttime behavior disorders) vs placebo [3, 10]: statistically significant treatment differences
change from baseline in NPI-12 domain disinhibition vs placebo [3, 11]: statistically significant treatment difference
extended composite NPI-12 score domain (agitation/aggression, aberrant motor behavior and sleep and nighttime behavior disorders) vs placebo [3, 11]: statistically significant treatment differences
change from baseline in mean agitation/aggression scores vs placebo ([3]; baseline domain score ≥1, mITT, treatment and time added as covariates): statistically significant treatment differences
extended composite NPI-12 score domain (agitation/aggression, aberrant motor behavior and sleep and nighttime behavior disorders) vs placebo ([3]; baseline domain score ≥1, treatment added as covariate, 50 mg): statistically significant treatment difference
change from baseline in NPI-12 domain sleep and nighttime behavior vs placebo ([3]; baseline domain score ≥1, treatment added as covariate, 50 mg, Week 26): statistically significant treatment difference
change from baseline in NPI-12 domain delusions and/or hallucinations vs placebo ([3]; baseline domain score ≥1, treatment added as covariate, 100 mg): statistically significant treatment difference
change from baseline in NPI-12 domain sleep and nighttime behavior vs placebo ([3]; baseline domain score ≥1, treatment added as covariate, 100 mg, Week 26): statistically significant treatment difference
change from baseline in NPI-12 domain delusions and/or hallucinations vs placebo ([3]; baseline domain score ≥1, treatment and time added as covariates): statistically significant treatment differences
change from baseline in mean agitation/aggression scores vs placebo ([3]; baseline domain score ≥3, mITT, 50 mg, Week 13): statistically significant treatment difference
change from baseline in mean agitation/aggression scores vs placebo ([3]; baseline domain score ≥3, mITT, 50 mg, Week 26): statistically significant treatment difference
change from baseline in mean agitation/aggression scores vs placebo ([3]; baseline domain score ≥3, mITT, 100 mg, Week 13): statistically significant treatment difference
change from baseline in mean agitation/aggression scores vs placebo ([3]; baseline domain score ≥3, treatment added as covariate, 50 mg, Week 26): statistically significant treatment difference
change from baseline in mean agitation/aggression scores vs placebo ([3]; baseline domain score ≥3, treatment and time added as covariates): statistically significant treatment differences
effect on NPI domains as measured by the NPI-12 scale [3]: beneficial effects
effect on NPI domains as measured by the NPI-12 scale ([3]; listed as Masupirdine): significant treatment effect
behavioral and psychological symptoms as assessed by NPI-12 subscale scores ([3]; subgroup analyses): significant improvement
change from baseline in ADAScog-11 scores vs placebo ([4]; baseline delusion and/or hallucination score ≥1, mITT, Week 26): statistically significant treatment difference
change from baseline in ADAScog-11 scores vs placebo ([4]; baseline delusion and/or hallucination score ≥1, treatment added as covariate): statistically significant treatment difference
change from baseline in ADAScog-11 scores vs placebo ([4]; baseline delusion and/or hallucination score ≥1, treatment and time added as covariates): statistically significant treatment differences
cognition as assessed by ADAS-Cog 11 scale ([4]; subjects with delusions and hallucinations (baseline symptoms)): significantly improved cognition
change from baseline at Week 26 in ADAS-Cog 11 score (primary efficacy endpoint) ([4]; vs placebo, whole study population): did not show significant treatment advantage in cognition over placebo
safety and tolerability [5]: safe and well tolerated with no significant adverse events

Cc1nc2n(c(=O)c1CCN1CCC(c3noc4cc(F)ccc34)CC1)CCCC2 [risperidone]
symptomatic benefit in BPSD [2]: modest symptomatic benefit
